The test system of data set [1] is Huh-7. The data set is described as follows: Antiproliferative activity against human HuH7 cells after 48 hrs by Hoechst 33342 staining-based assay. In kind it is functional, cell-based. The note with it: Huh-7, 48 h.
Data set [2] deals with Huh-7. The data set is described as follows: Antiproliferative activity against human HuH7 cells at 0.1 to 25 uM after 48 hrs by Hoechst 33342 staining-based assay relative to control. In kind it is functional.
A further data set deals with Caco-2. Nature of the data set: Antiproliferative activity against human Caco2 cells after 48 hrs by Hoechst 33342 staining-based assay. The note with it: Caco-2, 48 h. It is filed as functional, cell-based.
Data set [3] deals with MDA-MB-231. Nature of the data set: Antiproliferative activity against human MDA-MB-231 cells after 48 hrs by Hoechst 33342 staining-based assay. It is filed as functional, cell-based. As to conditions: MDA-MB-231, 48 h.
Data set [4] concerns MDA-MB-231. The data set is described as follows: Antiproliferative activity against human MDA-MB-231 cells at 0.1 to 25 uM after 48 hrs by Hoechst 33342 staining-based assay relative to control. In kind it is functional.
For data set [5], the system named is HCT-116. Nature of the data set: Antiproliferative activity against human HCT116 cells after 48 hrs by Hoechst 33342 staining-based assay. In kind it is functional, cell-based. As to conditions: HCT-116, 48 h.
Data set [6] concerns HCT-116. Nature of the data set: Antiproliferative activity against human HCT116 cells at 0.1 to 25 uM after 48 hrs by Hoechst 33342 staining-based assay relative to control. It is filed as functional.
Data set [7] deals with PC-3. Nature of the data set: Antiproliferative activity against human PC3 cells after 48 hrs by Hoechst 33342 staining-based assay. It is filed as functional, cell-based. The note with it: PC-3, 48 h.
Data set [8] relates to PC-3. Nature of the data set: Antiproliferative activity against human PC3 cells at 0.1 to 25 uM after 48 hrs by Hoechst 33342 staining-based assay relative to control. It is filed as functional.
The test system of data set [9] is NCI-H727. The data set is described as follows: Antiproliferative activity against human NCI-H727 cells after 48 hrs by Hoechst 33342 staining-based assay. In kind it is functional, cell-based. The note with it: NCI-H727, 48 h.
The subject of data set [10] is NCI-H727. Nature of the data set: Antiproliferative activity against human NCI-H727 cells at 0.1 to 25 uM after 48 hrs by Hoechst 33342 staining-based assay relative to control. In kind it is functional.
Data set [11] deals with HaCaT. The data set is described as follows: Antiproliferative activity against human HaCaT cells after 48 hrs by Hoechst 33342 staining-based assay. It is filed as cell-based.
Data set [12] relates to HaCaT. Nature of the data set: Antiproliferative activity against human HaCaT cells at 0.1 to 25 uM after 48 hrs by Hoechst 33342 staining-based assay relative to control. In kind it is cell-based.
The subject of data set [13] is Fibroblast. Nature of the data set: Antiproliferative activity against human fibroblast cells after 48 hrs by Hoechst 33342 staining-based assay. In kind it is cell-based.
In data set [14] the test system is Fibroblast. The data set is described as follows: Antiproliferative activity against human fibroblast cells at 0.1 to 25 uM after 48 hrs by Hoechst 33342 staining-based assay relative to control. In kind it is cell-based.
For data set [15], the target named is Mitogen-activated protein kinase; ERK1/ERK2 (Homo sapiens) (UniProt P27361+P28482). The data set is described as follows: Inhibition of EGF-stimulated p44/42 phosphorylation in human MDA-MB-468-Luc cells at 10^-5 M pre-incubated for 1 hr before EGF stimulation for 15 mins by Western blot analysis relative to control. In kind it is cell-based.
A further data set concerns MDA-MB-468. The data set is described as follows: Anticlonogenic activity against human MDA-MB-468 cells harboring luciferase reporter gene after 2 weeks by Giemsa staining-based assay. In kind it is functional, cell-based. As to conditions: MDA-MB-468, 336 h. For orientation: A reporter such as luciferase makes a cellular process visible.
The target in data set [16] is RAC-alpha serine/threonine-protein kinase (Homo sapiens) (UniProt P31749). Nature of the data set: Inhibition of EGF-stimulated Akt phosphorylation in human MDA-MB-468-Luc cells at 10^-5 M pre-incubated for 1 hr before EGF stimulation for 15 mins by Western blot analysis relative to control. It is filed as cell-based. (In western blotting, separated proteins are transferred to a membrane and probed.)

The structures appear in SMILES notation. Calls of active or inactive are those of the source. The calls are words filed in the database; no cut-off is given here.

As a reminder, the IC50 is the midpoint of a concentration-inhibition curve. A lower IC50 goes with greater potency. The inhibition is the change of the read-out against control, counted positive when it falls.

Sequence of Mitogen-activated protein kinase; ERK1/ERK2 (Homo sapiens) (P27361 whole entry, looked up): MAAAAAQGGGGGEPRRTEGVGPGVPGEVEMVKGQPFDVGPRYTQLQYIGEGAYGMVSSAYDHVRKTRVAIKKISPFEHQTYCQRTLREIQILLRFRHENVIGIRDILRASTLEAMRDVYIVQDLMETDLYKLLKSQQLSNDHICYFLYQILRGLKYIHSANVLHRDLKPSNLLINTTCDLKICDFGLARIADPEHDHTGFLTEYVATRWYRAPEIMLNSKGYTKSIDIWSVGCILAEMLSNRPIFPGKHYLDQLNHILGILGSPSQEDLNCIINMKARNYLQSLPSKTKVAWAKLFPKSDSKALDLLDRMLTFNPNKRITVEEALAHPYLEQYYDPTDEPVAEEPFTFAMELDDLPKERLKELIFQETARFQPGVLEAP
Sequence of Mitogen-activated protein kinase; ERK1/ERK2 (Homo sapiens) (P28482 whole entry, looked up): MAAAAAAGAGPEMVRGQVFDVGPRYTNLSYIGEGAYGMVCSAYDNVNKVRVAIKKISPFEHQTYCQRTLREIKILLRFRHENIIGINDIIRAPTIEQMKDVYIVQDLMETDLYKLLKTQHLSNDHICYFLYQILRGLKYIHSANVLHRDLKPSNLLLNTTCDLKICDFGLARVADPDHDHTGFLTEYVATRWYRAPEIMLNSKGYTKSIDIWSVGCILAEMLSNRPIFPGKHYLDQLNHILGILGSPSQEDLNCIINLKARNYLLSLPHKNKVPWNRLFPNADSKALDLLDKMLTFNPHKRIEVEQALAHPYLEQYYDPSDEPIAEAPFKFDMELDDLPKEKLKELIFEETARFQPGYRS
Sequence of RAC-alpha serine/threonine-protein kinase (Homo sapiens) (P31749 whole entry): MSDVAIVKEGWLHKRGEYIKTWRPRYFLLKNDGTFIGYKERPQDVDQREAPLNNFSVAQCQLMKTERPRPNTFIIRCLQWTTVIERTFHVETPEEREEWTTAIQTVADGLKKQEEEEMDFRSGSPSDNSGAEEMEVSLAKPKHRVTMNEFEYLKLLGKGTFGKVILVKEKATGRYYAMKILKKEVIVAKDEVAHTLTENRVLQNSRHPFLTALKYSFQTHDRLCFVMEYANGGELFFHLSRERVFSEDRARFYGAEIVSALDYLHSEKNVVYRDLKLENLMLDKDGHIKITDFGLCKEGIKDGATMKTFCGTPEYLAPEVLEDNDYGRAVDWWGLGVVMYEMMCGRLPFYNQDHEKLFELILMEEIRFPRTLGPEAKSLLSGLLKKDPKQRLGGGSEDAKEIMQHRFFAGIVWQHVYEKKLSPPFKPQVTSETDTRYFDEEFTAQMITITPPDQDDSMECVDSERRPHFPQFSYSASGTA

For the compound `COc1cccc2c1C(=O)c1c(O)c3c(c(O)c1C2=O)C[C@@](O)(C(=O)CO)C[C@@H]3O[C@H]1C[C@H](N)[C@H](O)[C@H](C)O1` [DOXORUBICIN], the IC50 with Huh-7 [1] is 0.03 µM; with Caco-2, 0.09 µM; in the data set with MDA-MB-231 [3], 0.012 µM; with HCT-116 [5] it was 0.05 µM; in the data set with PC-3 [7], 0.08 µM; in the data set with NCI-H727 [9], 0.03 µM. Besides, the IC50 in the data set with HaCaT [11] stood at 0.03 µM; in the data set on Fibroblast [13] it was 0.005 µM. Further, the Activity with Huh-7 [2] came out at 40%; with MDA-MB-231 [4], 50%; with HCT-116 [6], 80%; in the data set on PC-3 [8] it was 80%; in the data set with NCI-H727 [10], 60%; in the data set on HaCaT [12] it was 70%. Also, in the data set with Fibroblast [14], the Activity was found to be 40%.

With `CCN(CC)c1ccc(-c2ccc(C(C)=O)cc2)nn1`, the IC50 in the data set with Huh-7 [1] is 25 µM; in the data set on Caco-2, 15 µM; with MDA-MB-231 [3], 5 µM; with HCT-116 [5], 6 µM; with PC-3 [7], above 25 µM; with NCI-H727 [9], 25 µM. For the same compound, the IC50 is 20 µM in the data set on HaCaT [11], above 25 µM in the data set on Fibroblast [13] and 0.65 µM in the data set on MDA-MB-468. For the same compound, the Activity was 80% in the data set on Huh-7 [2]; 60% in the data set on MDA-MB-231 [4]; 100% in the data set with HCT-116 [6]; 80% in the data set on NCI-H727 [10]; 80% in the data set on HaCaT [12]. In data set [15], this compound gave an inhibition below 50%.

Turning to `COC(=O)c1ccc(-c2ccc(N(C)C)nn2)cc1`, the half-maximal inhibitory concentration (IC50) in the data set with Huh-7 [1], with Caco-2, in the data set with MDA-MB-231 [3], with HCT-116 [5], in the data set on PC-3 [7] and in the data set with NCI-H727 [9] was above 25 µM throughout. Further, the figures for the IC50 with Fibroblast [13] and in the data set with MDA-MB-468 were above 25 µM and 3.5 µM, respectively. Besides, the inhibition entry in data set [15] and in data set [16] was “inactive” each time.

`CC[C@H](CO)Nc1nc(NCc2ccccc2)c2ncn(C(C)C)c2n1` [SELICICLIB]: the IC50 in the data set on Huh-7 [1] is 20 µM; in the data set with HCT-116 [5], 9 µM; in the data set with PC-3 [7] it was 12 µM; in the data set with HaCaT [11], 12 µM; in the data set with Fibroblast [13], 12 µM. The Activity in the data set with Huh-7 [2] is listed as 90%; in the data set with MDA-MB-231 [4], 80%; with HCT-116 [6], 100%; in the data set on PC-3 [8], 8%; with NCI-H727 [10], 40%; in the data set with HaCaT [12] it was 80%. Besides, in the data set with Fibroblast [14], the Activity was determined as 40%.

With `CCOC(=O)c1cccc(-c2ccc(N(CC)CC)nn2)c1`, the IC50 with Huh-7 [1] was above 25 µM; in the data set with Caco-2, above 25 µM; with MDA-MB-231 [3], above 25 µM; with HCT-116 [5] it was above 25 µM; with PC-3 [7], above 25 µM; in the data set with NCI-H727 [9] it was 30 µM. The IC50 with HaCaT [11] and in the data set on Fibroblast [13] was above 25 µM in each case. Also, the Activity with NCI-H727 [10] turned out to be 40%.

Consider `CC(=O)O[C@H]1C(=O)[C@@]2(C)[C@H]([C@H](OC(=O)c3ccccc3)[C@]3(O)C[C@H](OC(=O)[C@H](O)[C@@H](NC(=O)c4ccccc4)c4ccccc4)C(C)=C1C3(C)C)[C@]1(OC(C)=O)CO[C@@H]1C[C@@H]2O` [PACLITAXEL], for which the IC50 with Huh-7 [1] was 0.012 µM; in the data set with MDA-MB-231 [3], 0.06 µM; in the data set on HCT-116 [5], below 0.001 µM; in the data set on PC-3 [7] it was below 0.001 µM; in the data set on HaCaT [11], 0.002 µM; in the data set on Fibroblast [13] it was below 0.001 µM. The Activity was 50% with Huh-7 [2]; 60% in the data set with MDA-MB-231 [4]; 90% in the data set on HCT-116 [6]; 60% in the data set on PC-3 [8]; 70% in the data set on HaCaT [12]; 30% with Fibroblast [14].

In the case of `CCOC(=O)c1ccc(-c2ccc(N(C)C)nn2)cc1`, the 50% inhibitory concentration (IC50) with Huh-7 [1], with Caco-2, in the data set with MDA-MB-231 [3], in the data set on HCT-116 [5], in the data set with PC-3 [7] and in the data set with NCI-H727 [9] was above 25 µM each time. Also, the IC50 is above 25 µM in the data set on Fibroblast [13] and 26 µM in the data set on MDA-MB-468. The inhibition entry in data set [15] and in [16] was “inactive” each time.

Values taken from ChEMBL document CHEMBL4422646, “Synthesis and biological evaluation of 3-amino-, 3-alkoxy- and 3-aryloxy-6-(hetero)arylpyridazines as potent antitumor agents” (Bioorg Med Chem Lett, 2019).
